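Each compound was tested at five concentrations against cells in 96-well plates for 48 hours. GI50 is the concentration that inhibits growth by half. TGI denotes the concentration required for complete inhibition of growth.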
How the values were obtained:
Experiment in all cases: DTP human tumour cell line panel, 48 h
[1] = tested on: 786-0 renal
[2] = tested on: A498 renal
[3] = tested on: A549 NSCLC
[4] = tested on: ACHN renal
[5] = tested on: BT-549 breast
[6] = tested on: CAKI-1 renal
[7] = tested on: CCRF-CEM leukemia
[8] = tested on: COLO 205 colon
[9] = tested on: DU-145 prostate
[10] = tested on: EKVX NSCLC
[11] = tested on: HCC-2998 colon
[12] = tested on: HCT-116 colon
[13] = tested on: HCT-15 colon
[14] = tested on: HL-60(TB) leukemia
[15] = tested on: HOP-62 NSCLC
[16] = tested on: HOP-92 NSCLC
[17] = tested on: HS 578T breast
[18] = tested on: HT29 colon
[19] = tested on: IGROV1 ovarian
[20] = tested on: K-562 leukemia
[21] = tested on: KM12 colon
[22] = tested on: LOX IMVI melanoma
[23] = tested on: M14 melanoma
[24] = tested on: MALME-3M melanoma
[25] = tested on: MCF7 breast
[26] = tested on: MDA-MB-231 breast
[27] = tested on: MDA-MB-435
[28] = tested on: MOLT-4 leukemia
[29] = tested on: NCI-H226 lung
[30] = tested on: NCI-H23 lung
[31] = tested on: NCI-H460 lung
[32] = tested on: NCI-H522 lung
[33] = tested on: NCI/ADR-RES ovarian
[34] = tested on: OVCAR-4 ovarian
[35] = tested on: OVCAR-5 ovarian
[36] = tested on: PC-3 prostate
[37] = tested on: RPMI-8226 leukemia
[38] = tested on: RXF 393 renal
[39] = tested on: SF-268 CNS
[40] = tested on: SF-295 CNS
[41] = tested on: SF-539 CNS
[42] = tested on: SK-MEL-2 melanoma
[43] = tested on: SK-MEL-28 melanoma
[44] = tested on: SK-MEL-5 melanoma
[45] = tested on: SK-OV-3 ovarian
[46] = tested on: SN12C renal
[47] = tested on: SNB-19 CNS
[48] = tested on: SNB-75 CNS
[49] = tested on: SR leukemia
[50] = tested on: SW-620 colon
[51] = tested on: T-47D breast
[52] = tested on: TK-10 renal
[53] = tested on: U251 CNS
[54] = tested on: UACC-257 melanoma
[55] = tested on: UACC-62 melanoma
[56] = tested on: UO-31 renal

`CCOP(=O)(OCC)OC[C@]12CCC(C)(C)C=C1[C@H]1CC[C@@H]3[C@@]4(C)CC[C@H](OP(=O)(OCC)OCC)C(C)(C)[C@@H]4CC[C@@]3(C)[C@]1(C)CC2` gave a GI50 [1] of 1600 nM, a TGI [1] of 3080 nM and a GI50 [2] of 1530 nM. For the same compound, the TGI [2] was 2900 nM, the GI50 [3] was 1530 nM and the TGI [3] was 3250 nM. For the same compound, the GI50 [4] was 1630 nM, the TGI [4] was 2980 nM and the GI50 [5] was 1460 nM. For the same compound, the TGI [5] was 2930 nM, the GI50 [6] was 970 nM and the TGI [6] was 2180 nM. For the same compound, the GI50 [7] was 2300 nM, the TGI [7] was 8870 nM and the GI50 [8] was 1650 nM. The TGI [8] was 3230 nM, the GI50 [9] was 1670 nM and the TGI [9] was 3050 nM. It also gave a GI50 [10] of 1480 nM, a TGI [10] of 2910 nM and a GI50 [11] of 1390 nM. The TGI [11] was 2920 nM, the GI50 [12] was 1540 nM and the TGI [12] was 3090 nM. For the same compound, the GI50 [13] was 1430 nM, the TGI [13] was 2870 nM and the GI50 [14] was 611 nM. For the same compound, the TGI [14] was 3020 nM, the GI50 [15] was 1610 nM and the TGI [15] was 3140 nM. It also gave a GI50 [16] of 1160 nM, a TGI [16] of 2530 nM and a GI50 [17] of 1760 nM. For the same compound, the TGI [17] was 4220 nM, the GI50 [18] was 1360 nM and the TGI [18] was 2780 nM. It also gave a GI50 [19] of 1720 nM, a TGI [19] of 3260 nM and a GI50 [20] of 388 nM. For the same compound, the TGI [20] was 3130 nM, the GI50 [21] was 1560 nM and the TGI [21] was 2930 nM. It also gave a GI50 [22] of 1300 nM, a TGI [22] of 2660 nM and a GI50 [23] of 1660 nM. The TGI [23] was 3340 nM, the GI50 [24] was 1540 nM and the TGI [24] was 2960 nM. For the same compound, the GI50 [25] was 1480 nM, the TGI [25] was 3000 nM and the GI50 [26] was 1410 nM. The TGI [26] was 3040 nM, the GI50 [27] was 1590 nM and the TGI [27] was 2990 nM. The GI50 [28] was 1200 nM, the TGI [28] was 3660 nM and the GI50 [29] was 1650 nM. For the same compound, the TGI [29] was 3600 nM, the GI50 [30] was 1190 nM and the TGI [30] was 2810 nM. It also gave a GI50 [31] of 1670 nM, a TGI [31] of 3210 nM and a GI50 [32] of 1640 nM. It also gave a TGI [32] of 3160 nM, a GI50 [33] of 1570 nM and a TGI [33] of 3290 nM. It also gave a GI50 [34] of 1910 nM, a TGI [34] of 4010 nM and a GI50 [35] of 1480 nM. It also gave a TGI [35] of 2860 nM, a GI50 [36] of 673 nM and a TGI [36] of 2260 nM. The GI50 [37] was 547 nM, the TGI [37] was 3430 nM and the GI50 [38] was 1520 nM. For the same compound, the TGI [38] was 3080 nM, the GI50 [39] was 1550 nM and the TGI [39] was 3020 nM. The GI50 [40] was 1410 nM, the TGI [40] was 2770 nM and the GI50 [41] was 1660 nM. The TGI [41] was 3120 nM, the GI50 [42] was 1670 nM and the TGI [42] was 3120 nM. It also gave a GI50 [43] of 1540 nM, a TGI [43] of 2910 nM and a GI50 [44] of 1680 nM. It also gave a TGI [44] of 3070 nM, a GI50 [45] of 1530 nM and a TGI [45] of 2960 nM. It also gave a GI50 [46] of 1350 nM, a TGI [46] of 2850 nM and a GI50 [47] of 1550 nM. For the same compound, the TGI [47] was 3040 nM, the GI50 [48] was 1370 nM and the TGI [48] was 2690 nM. It also gave a GI50 [49] of 866 nM, a TGI [49] of 5560 nM and a GI50 [50] of 1640 nM. For the same compound, the TGI [50] was 3140 nM, the GI50 [51] was 1530 nM and the TGI [51] was 3260 nM. For the same compound, the GI50 [52] was 1580 nM, the TGI [52] was 2980 nM and the GI50 [53] was 1580 nM. The TGI [53] was 3170 nM, the GI50 [54] was 1560 nM and the TGI [54] was 3080 nM. For the same compound, the GI50 [55] was 1110 nM, the TGI [55] was 2490 nM and the GI50 [56] was 1360 nM. It also gave a TGI [56] of 2680 nM.

— PubChem BioAssay (NCI)
